Laboratory results published in patent US6194424A, “Arylacetamides and their use as medicaments” (Bayer Aktiengesellschaft, priority 1996, dated 2001).

Test system: ApoB-100-associated lipoproteins (HepG2 cells)
Assay: Inhibition of the release of ApoB-100-associated lipoproteins from HepG2 liver cells (immunoassay of culture supernatant)
Type: cell-based
Details: Homo sapiens, substance concentration at which light absorption (450 nm) is inhibited by 50% vs solvent control, read-out: Apo B IC50
Procedure: The test for detection of the inhibition of the release of ApoB-100-associated lipoproteins from liver cells was carried out in vitro using cultured liver cells, preferably using cells of the human line HepG2. These cells are cultured under standard conditions in medium for the culture of eucaryotic cells, preferably in RPMI 1640 using 10% foetal calf serum. HepG2 cells synthesize and secrete into the culture supernatant ApoB-100-associated lipoprotein particles, which in principle are of similar construction to the VLDL or LDL particles which are to be, found in the plasma.
These particles can be detected using an immunoassay for human LDL. This immunoassay is carried out using antibodies which have been induced under standard conditions in the rabbit to human LDL. The anti-LDL antibodies (rabbit anti-LDL-Ab) were purified by affinity chromatography on an immunosorbent using human LDL. These purified rabbit anti-LDL-Ab are adsorbed onto the surface of plastic. […] The immune complex on the plastic surface is detected using monoclonal antibodies which have been induced against human LDL and purified according to standard conditions. […] After acidification of the reaction mixture with H2 SO4, the specific light absorption at 450 nm is determined, which is a measure of the amount of ApoB-100-associated particles which have been secreted into the culture supernatant by the HepG2 cells. […]

| IC50 [nM] | SMILES |
| --- | --- |
| 8.2 | Cc1cc(C)c2c3ccccc3n(Cc3ccc([C@@H](C(=O)Nc4ccccc4)C4CCCC4)cc3)c2n1 [Example 2] |
| 12.5 | CCCCCNC(=O)[C@H](c1ccc(Cn2c3ccccc3c3c(C)cc(C)nc32)cc1)C1CCCC1 [Example 20] |
